Results from patent publication US20240269298A1, “PHOSPHONYL DERIVATIVE, AND COMPOSITION AND PHARMACEUTICAL APPLICATION THEREOF” (XIZANG HAISCO PHARMACEUTICAL CO., LTD., priority 2021, published 2024).
Where two headings read alike, the source gives them in different places.

Tests used:
[1] = test system: NCI-H1975 (EGFR-L858R-T790M) cells; test: Inhibitory activity on proliferation of NCI-H1975 (EGFR-L858R-T790M) cells (CTG, 72 h); assay type: cell-based; details: Homo sapiens
Outline: (§1)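 IC50 values come from S-shaped dose-survival fits of CTG signal expressed as % of vehicle. Compound exposure lasted 72 h at 37 °C with 0.1% DMSO; seeding was 3000 A431 cells/well in DMEM+10% FBS and 1000 NCI-H1975 cells/well in RPMI1640+10% FBS.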

[2] = test system: NCI-H1975 EGFR-L858R-T790M-C797S cells; test: Inhibitory activity on proliferation of NCI-H1975 EGFR-L858R-T790M-C797S cells (CellTiter-Glo, 72 h); assay type: cell-based; details: Homo sapiens
Method: NCI-H1975 EGFR-L858R-T790M-C797S cells were cultured in an incubator at 37° C. with 5% CO2, and the culture medium was RPMI1640+10% FBS+100 μg/mL hygromycin. The cells in the logarithmic phase were collected, and the cell suspension was adjusted to an appropriate concentration with a hygromycin-free culture medium, and then plated on a 96-well plate at a density of 1500 cells/well and a volume of 90 μL. 10 μL of the compounds at different concentrations were added, and a vehicle control group (cells plus DMSO) was provided, wherein the concentration of DMSO was 0.1%. The cell culture plate was cultured in an incubator at 37° C. with 5% CO2 for 72 hours. After the incubation was completed, according to operation instructions for a CellTiter-Glo kit (Promega, G7572), 50 μL of CTG solution, which was already pre-melted and equilibrated to room temperature, was added to each well, and the mixtures were uniformly mixed for 2 min using a microplate shaker. The plate was placed at room temperature for 10 min, and then […] signal values were measured using a microplate reader (Envision 2104). […] was processed based on formula (2), and using the GraphPad Prism 5.0 software and nonlinear regression model, S-shaped dose-survival curves were plotted, and IC50 values were calculated. wherein Vsample was the readout of the drug-treated group, and Vvehicle control was the readout of the control group.

[3] = Pharmacokinetic test in mice; assay type: in vivo; details: male, ICR, mouse, po, administration i.g. (10 mg/kg), plasma
Method: Test objective: In this experiment, a single dose of test compounds was administered to ICR mice intravenously and intragastrically, the concentrations of the test compounds in plasma of mice were measured, and the pharmacokinetic characteristics and bioavailability of the test compounds in mice were evaluated.
Experimental animals: male ICR mice, 20-25 g, purchased from BEIJING HFK BIOSCIENCE CO., LTD. with the laboratory animal production license number of SCXK (JING) 2019-0008; or purchased from CHENGDU DDOSSY EXPERIMENTAL ANIMALS CO., LTD. (SCXK (CHUAN) 2020-030); or purchased from HUNAN SJA LABORATORY ANIMAL CO., LTD. (SCXK (XIANG) 2019-0004).
Experimental method: on the day of the experiment, ICR mice were randomly grouped according to their body weights. The mice were fasted with water available for 12 to 14 hours one day before the administration, and were fed 4 hours after the administration.
Sampling: before and after the administration, blood was taken from the orbits of the mice under isoflurane anesthesia, and placed in an EDTAK2 centrifuge tube. Centrifugation was carried out at 5000 rpm at 4° C. for 10 min, and the plasma was collected.
Time points for plasma collection in G1&G2 groups: 0, 5 min, 15 min, 30 min, 1h, 2h, 4h, 6h, 8h, and 24 h; • time points for plasma collection in G3 group: 0, 5 min, 15 min, 30 min, 1 h, 2 h, 4 h, 6h, 8h, and 24 h; • before analysis and detection, all samples were stored at −80° C. The samples were analyzed quantitatively by LC-MS/MS.

A431 (EGFR-WT) cells = test: Inhibitory activity on proliferation of A431 (EGFR-WT) cells (CTG, 72 h); assay type: cell-based; details: Homo sapiens, A-431
Outline: as §1

[4] = read-out: IC50 (value in brackets)

| IC50 ([1]; read-out: IC50 (class symbol)) | IC50 [1, 4] | IC50 ([2]; read-out: IC50 (value)) | AUC [3] | half-life [3] | IC50 (A431 (EGFR-WT) cells) | IC50 ([2]; read-out: IC50 (class symbol)) | AUC(0-t) [3] | SMILES |
| --- | --- | --- | --- | --- | --- | --- | --- | --- |
| 0.1 to 0.5 µM | 0.549 µM | 1.38 µM | 563 ng·h/mL | 1.54 h |  |  |  | COc1cc(N2CCC(N3CCN(CCOCC#Cc4cccc5c4CN(C4CCC(=O)NC4=O)C5=O)CC3)CC2)ccc1Nc1ncc(Cl)c(Nc2ccccc2P(C)(C)=O)n1 (centres unmarked) [Control compound A, reference compound] |
| < 0.1 µM | 0.015 µM | 0.027 µM |  |  | ≥ 10 µM | < 0.2 µM |  | COc1cc(N2CCC(N3CCN(CC4CCN(c5ccc6c(c5)C(=O)N(C5CCC(=O)NC5=O)C6=O)C4)CC3)CC2)c(-c2cnn(C)c2)cc1Nc1ncc(Cl)c(Nc2ccc3nccnc3c2P(C)(C)=O)n1 (centres unmarked) [Compound 6, 5-(3-((4-(1-(4-((5-chloro-4-((5-(dimethylphosphoryl)quinoxalin-6-yl)amino)pyrimidin-2-yl)amino)-5-methoxy-2-(1-methyl-1H-pyrazol-4-yl)phenyl)piperidin-4-yl)piperazin-1-yl)methyl)pyrrolidin-1-yl)-2-(2,6-dioxopiperidin-3-yl)isoindoline-1,3-dione] |
| 0.1 to 0.5 µM | 0.658 µM | 0.704 µM | 2090 ng·h/mL | 1.23 h |  | 0.5 to 1 µM |  | COc1cc(N2CCC(N3CCN(C(=O)CNc4cccc5c4C(=O)N(C4CCC(=O)NC4=O)C5=O)CC3)CC2)ccc1Nc1ncc(Cl)c(Nc2ccccc2P(C)(C)=O)n1 (centres unmarked) [Control compound B, reference compound] |
| 0.1 to 0.5 µM | 0.11 µM | 0.072 µM |  |  | ≥ 10 µM | < 0.2 µM | 30600 ng·h/mL | COc1cc(N2CCC(CN3CCC4(CC3)CCN(c3cc5c(cc3F)C(=O)N(C3CCC(=O)NC3=O)C5=O)CC4)CC2)c(-c2cnn(C)c2)cc1Nc1ncc(Br)c(Nc2ccc(-c3ccccc3)cc2P(C)(C)=O)n1 (centres unmarked) [Compound 47, 5-(9-((1-(4-((5-bromo-4-((3-(dimethylphosphoryl)-[1,1′-biphenyl]-4-yl)amino)pyrimidin-2-yl)amino)-5-methoxy-2-(1-methyl-1H-pyrazol-4-yl)phenyl)piperidin-4-yl)methyl)-3,9-diazaspiro[5.5]undecan-3-yl)-2-(2,6-dioxopiperidin-3-yl)-6-fluoroisoindoline-1,3-dione] |
| < 0.1 µM | 0.012 µM | 0.024 µM |  |  | ≥ 10 µM | < 0.2 µM |  | COc1cc(N2CCC(N3CCN(CC4CCN(c5ccc6c(c5)C(=O)N(C5CCC(=O)NC5=O)C6=O)CC4)CC3)CC2)c(-c2cnn(C)c2)cc1Nc1ncc(Br)c(Nc2ccc3nccnc3c2P(C)(C)=O)n1 (centres unmarked) [Compound 18, 5-(4-((4-(1-(4-((5-bromo-4-((5-(dimethylphosphoryl)quinoxalin-6-yl)amino)pyrimidin-2-yl)amino)-5-methoxy-2-(1-methyl-1H-pyrazol-4-yl)phenyl)piperidin-4-yl)piperazin-1-yl)methyl)piperidin-1-yl)-2-(2,6-dioxopiperidin-3-yl)isoindoline-1,3-dione] |
| 0.1 to 0.5 µM | 0.129 µM | 0.136 µM |  |  | ≥ 10 µM | < 0.2 µM | 62300 ng·h/mL | COc1cc(N2CCC(CN3CCN(c4ccc5c(c4)C(=O)N(C4CCC(=O)NC4=O)C5=O)CC3)CC2)c(-c2cnn(C)c2)cc1Nc1ncc(Cl)c(Nc2ccc(-c3ccccc3)cc2P(C)(C)=O)n1 (centres unmarked) [Compound 65, 5-(4-((1-(4-((5-chloro-4-((3-(dimethylphosphoryl)-[1,1′-biphenyl]-4-yl)amino)pyrimidin-2-yl)amino)-5-methoxy-2-(1-methyl-1H-pyrazol-4-yl)phenyl)piperidin-4-yl)methyl)piperazin-1-yl)-2-(2,6-dioxopiperidin-3-yl)isoindoline-1,3-dione] |
| < 0.1 µM | 0.02 µM | 0.03 µM |  |  | ≥ 10 µM | < 0.2 µM |  | COc1cc(N2CCC(N3CCN(C4CC5(CCN(c6ccc7c(c6)C(=O)N(C6CCC(=O)NC6=O)C7=O)CC5)C4)CC3)CC2)c(-c2cnn(C)c2)cc1Nc1ncc(Cl)c(Nc2ccc3nccnc3c2P(C)(C)=O)n1 (centres unmarked) [Trifluoroacetate of compound 7, 5-(2-(4-(1-(4-((5-chloro-4-((5-(dimethylphosphoryl)quinoxalin-6-yl)amino)pyrimidin-2-yl)amino)-5-methoxy-2-(1-methyl-1H-pyrazol-4-yl)phenyl)piperidin-4-yl)piperazin-1-yl)-7-azaspiro[3.5]nonan-7-yl)-2-(2,6-dioxopiperidin-3-yl)isoindoline-1,3-dione] |
| < 0.1 µM | 0.014 µM | 0.039 µM |  |  |  | < 0.2 µM |  | COc1cc(N2CCC3(CCN(CC4CCN(c5ccc6c(c5)C(=O)N(C5CCC(=O)NC5=O)C6=O)CC4)CC3)CC2)c(-c2cnn(C)c2)cc1Nc1ncc(Cl)c(Nc2ccc3nccnc3c2P(C)(C)=O)n1 (centres unmarked) [Compound 9, 5-(4-((9-(4-((5-chloro-4-((5-(dimethylphosphoryl)quinoxalin-6-yl)amino)pyrimidin-2-yl)amino)-5-methoxy-2-(1-methyl-1H-pyrazol-4-yl)phenyl)-3,9-diazaspiro[5.5]undecan-3-yl)methyl)piperidin-1-yl)-2-(2,6-dioxopiperidin-3-yl)isoindoline-1,3-dione] |
| 0.1 to 0.5 µM | 0.105 µM | 0.364 µM |  |  | ≥ 10 µM | 0.2 to 0.5 µM | 59200 ng·h/mL | COc1cc(N2CCC(CN3CCN(c4ccc5c(c4)C(=O)N(C4CCC(=O)NC4=O)C5=O)CC3)CC2)c(-c2cnn(C)c2)cc1Nc1ncc(Br)c(Nc2ccc(-c3ccccc3)cc2P(C)(C)=O)n1 (centres unmarked) [Compound 45, 5-(4-((1-(4-((5-bromo-4-((3-(dimethylphosphoryl)-[1,1′-biphenyl]-4-yl)amino)pyrimidin-2-yl)amino)-5-methoxy-2-(1-methyl-1H-pyrazol-4-yl)phenyl)piperidin-4-yl)methyl)piperazin-1-yl)-2-(2,6-dioxopiperidin-3-yl)isoindoline-1,3-dione] |
| 0.1 to 0.5 µM | 0.107 µM | 0.152 µM | 118000 ng·h/mL | 12.7 h | ≥ 10 µM | < 0.2 µM |  | COc1cc(N2CCC(CN3CCN(c4ccc5c(c4)C(=O)N(C4CCC(=O)NC4=O)C5=O)CC3)CC2)c(-c2cnn(C)c2)cc1Nc1ncc(Br)c(Nc2ccc(-c3ccccc3F)cc2P(C)(C)=O)n1 (centres unmarked) [Compound 101, 5-(4-((1-(4-((5-bromo-4-((3-(dimethylphosphoryl)-2′-fluoro-[1,1′-biphenyl]-4-yl)amino)pyrimidin-2-yl)amino)-5-methoxy-2-(1-methyl-1H-pyrazol-4-yl)phenyl)piperidin-4-yl)methyl)piperazin-1-yl)-2-(2,6-dioxopiperidin-3-yl)isoindoline-1,3-dione] |
| < 0.1 µM | 0.045 µM |  |  |  | ≥ 10 µM |  | 2340 ng·h/mL | COc1cc(N2CCC(N3CCN(CC4CCN(c5cc6c(cc5F)C(=O)N(C5CCC(=O)NC5=O)C6=O)CC4)CC3)CC2)c(-c2cnn(C)c2)cc1Nc1ncc(Br)c(Nc2ccc(-c3ccccc3)cc2P(C)(C)=O)n1 (centres unmarked) [Compound 87, 5-(4-((4-(1-(4-((5-bromo-4-((3-(dimethylphosphoryl)-[1,1′-biphenyl]-4-yl)amino)pyrimidin-2-yl)amino)-5-methoxy-2-(1-methyl-1H-pyrazol-4-yl)phenyl)piperidin-4-yl)piperazin-1-yl)methyl)piperidin-1-yl)-2-(2,6-dioxopiperidin-3-yl)-6-fluoroisoindoline-1,3-dione] |
